# According to patent USRE50082E1, “(5,6-dihydro)pyrimido[4,5-e]indolizines” (NETHERLANDS TRANSLATIONAL RESEARCH CENTER B.V., priority 2014, dated 2024):
# Test system: MOLT-4 cancer cell line
# Assay: Cell proliferation assay, MOLT-4 cancer cell line (ATPlite);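 also: luminescence read-out, percent growth versus compound-free DMSO wells as maximum growth, start-of-incubation signal separating growth from cell death, IC50 from logistic curve fit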
# Assay type: cell-based
# Conditions: Homo sapiens, MOLT-4; 72 hours incubation, ATPlite 1Step; read-out: IC50 MOLT-4 cell proliferation
row,IC50 [nM],Structure (SMILES)
1,50 to 150,"COc1cc(C(=O)NC2CNC2)ccc1Nc1ncc2c(n1)-n1ccc(C(=O)Nc3c(C)cccc3C)c1CC2 [Example 104, 2-[4-(Azetidin-3-ylcarbamoyl)-2-methoxy-anilino]-N-(2,6-dimethylphenyl)-5,6-dihydropyrimido[4,5-e]indolizine-7-carboxamide]"
2,< 50,"CCc1cccc(CC)c1NC(=O)c1ccn2c1CCc1cnc(Nc3cnc(N4CCN(C)CC4)nc3OC)nc1-2 [Example 107, N-(2,6-diethylphenyl)-2-[[4-methoxy-2-(4-methylpiperazin-1-yl)pyrimidin-5-yl]amino]-5,6-dihydropyrimido[4,5-e]indolizine-7-carboxamide]"
3,< 50,"CCc1nn(CCOC)c(CC)c1NC(=O)c1ccn2c1CCc1cnc(Nc3ccc(N4CCN(C)CC4)cc3OC)nc1-2 [Example 109, N-[3,5-diethyl-1-(2-methoxyethyl)pyrazol-4-yl]-2-[2-methoxy-4-(4-methylpiperazin-1-yl)anilino]-5,6-dihydropyrimido[4,5-e]indolizine-7-carboxamide]"
4,< 50,"COc1cc(N2CCN(C(=O)C3CC3)CC2)ccc1Nc1ncc2c(n1)-n1ccc(C(=O)Nc3c(C)cccc3C)c1CC2 [Example 112, 2-[4-[4-(Cyclopropanecarbonyl)piperazin-1-yl]-2-methoxy-anilino]-N-(2,6-dimethylphenyl)-5,6-dihydropyrimido[4,5-e]indolizine-7-carboxamide]"
5,< 50,"CCCCS(=O)(=O)N1CCN(c2ccc(Nc3ncc4c(n3)-n3ccc(C(=O)Nc5c(C)cccc5C)c3CC4)c(OC)c2)CC1 [Example 113, 2-[4-(4-Butylsulfonylpiperazin-1-yl)-2-methoxy-anilino]-N-(2,6-dimethylphenyl)-5,6-dihydropyrimido[4,5-e]indolizine-7-carboxamide]"
6,< 50,"CCNC(=O)N1CCN(c2ccc(Nc3ncc4c(n3)-n3ccc(C(=O)Nc5c(C)cccc5C)c3CC4)c(OC)c2)CC1 [Example 114, N-(2,6-dimethylphenyl)-2-[4-[4-(ethylcarbamoyl)piperazin-1-yl]-2-methoxy-anilino]-5,6-dihydropyrimido[4,5-e]indolizine-7-carboxamide]"
7,< 50,"CCc1cccc(CC)c1NC(=O)c1ccn2c1CCc1cnc(Nc3ccc(N4CCNC(C)C4)cc3OC)nc1-2 (stereo not shown) [Example 116, N-(2,6-diethylphenyl)-2-[2-methoxy-4-(3-methylpiperazin-1-yl)anilino]-5,6-dihydropyrimido[4,5-e]indolizine-7-carboxamide]"
8,< 50,"COc1cc(C(=O)N[C@@H]2CCNC[C@@H]2OC)ccc1Nc1ncc2c(n1)-n1ccc(C(=O)Nc3c(C)cccc3C)c1CC2 [Example 117, N-(2,6-dimethylphenyl)-2-[2-methoxy-4-[[(3S,4R)-3-methoxy-4-piperidyl]carbamoyl]anilino]-5,6-dihydropyrimido[4,5-e]indolizine-7-carboxamide]"
9,< 50,"COc1cc(C(=O)N[C@@H]2CCNC[C@@H]2F)ccc1Nc1ncc2c(n1)-n1ccc(C(=O)Nc3c(C)cccc3C)c1CC2 [Example 118, N-(2,6-dimethylphenyl)-2-[4-[[(3S,4R)-3-fluoro-4-piperidyl]carbamoyl]-2-methoxy-anilino]-5,6-dihydropyrimido[4,5-e]indolizine-7-carboxamide]"
10,< 50,"COc1cc(C(=O)NC(C)C)ccc1Nc1ncc2c(n1)-n1ccc(C(=O)Nc3c(C)cccc3C)c1CC2 [Example 120, N-(2,6-dimethylphenyl)-2-[4-(isopropylcarbamoyl)-2-methoxy-anilino]-5,6-dihydropyrimido[4,5-e]indolizine-7-carboxamide]"
11,< 50,"COc1cc(C(=O)N2CCOCC2)ccc1Nc1ncc2c(n1)-n1ccc(C(=O)Nc3c(C)cccc3C)c1CC2 [Example 122, N-(2,6-dimethylphenyl)-2-[2-methoxy-4-(morpholine-4-carbonyl)anilino]-5,6-dihydropyrimido[4,5-e]indolizine-7-carboxamide]"
12,< 50,"CCN1CCCN(C(=O)c2ccc(Nc3ncc4c(n3)-n3ccc(C(=O)Nc5c(C)cccc5C)c3CC4)c(OC)c2)CC1 [Example 124, N-(2,6-dimethylphenyl)-2-[4-(4-ethyl-1,4-diazepane-1-carbonyl)-2-methoxy-anilino]-5,6-dihydropyrimido[4,5-e]indolizine-7-carboxamide]"
13,< 50,"COc1cc(C(=O)NC2CC2)ccc1Nc1ncc2c(n1)-n1ccc(C(=O)Nc3c(C)cccc3C)c1CC2 [Example 126, 2-[4-(cyclopropylcarbamoyl)-2-methoxy-anilino]-N-(2,6-dimethylphenyl)-5,6-dihydropyrimido[4,5-e]indolizine-7-carboxamide]"
14,< 50,"COCCNC(=O)c1ccc(Nc2ncc3c(n2)-n2ccc(C(=O)Nc4c(C)cccc4C)c2CC3)c(OC)c1 [Example 127, N-(2,6-dimethylphenyl)-2-[2-methoxy-4-(2-methoxyethylcarbamoyl)anilino]-5,6-dihydropyrimido[4,5-e]indolizine-7-carboxamide]"
15,50 to 150,"COc1cc(C(=O)NCCN2CCCCC2)ccc1Nc1ncc2c(n1)-n1ccc(C(=O)Nc3c(C)cccc3C)c1CC2 [Example 128, N-(2,6-dimethylphenyl)-2-[2-methoxy-4-[2-(1-piperidyl)ethylcarbamoyl]anilino]-5,6-dihydropyrimido[4,5-e]indolizine-7-carboxamide]"
16,< 50,"COc1cc(C(=O)N2CCC(C)(C#N)CC2)ccc1Nc1ncc2c(n1)-n1ccc(C(=O)Nc3c(C)cccc3C)c1CC2 [Example 129, 2-[4-(4-Cyano-4-methyl-piperidine-1-carbonyl)-2-methoxy-anilino]-N-(2,6-dimethylphenyl)-5,6-dihydropyrimido[4,5-e]indolizine-7-carboxamide]"
17,< 50,"COc1cc(N2CCN(C(=O)C3(C)CNC3)CC2)ccc1Nc1ncc2c(n1)-n1ccc(C(=O)Nc3c(C)cccc3C)c1CC2 [Example 130, N-(2,6-dimethylphenyl)-2-[2-methoxy-4-[4-(3-methylazetidine-3-carbonyl)piperazin-1-yl]anilino]-5,6-dihydropyrimido[4,5-e]indolizine-7-carboxamide]"
18,50 to 150,"COCCn1nc(C)c(NC(=O)c2ccn3c2CCc2cnc(Nc4ccc(N5CCN(C(C)=O)CC5)cc4OC)nc2-3)c1C [Example 131, 2-[4-(4-Acetylpiperazin-1-yl)-2-methoxy-anilino]-N-[1-(2-methoxyethyl)-3,5-dimethyl-pyrazol-4-yl]-5,6-dihydropyrimido[4,5-e]indolizine-7-carboxamide]"
19,50 to 150,"COCCn1nc(C)c(NC(=O)c2ccn3c2CCc2cnc(Nc4ccc(N5CCN(C(=O)C6CC(F)C6)CC5)cc4OC)nc2-3)c1C (stereo not shown) [Example 132, 2-[4-[4-(3-Fluorocyclobutanecarbonyl)piperazin-1-yl]-2-methoxy-anilino]-N-[1-(2-methoxyethyl)-3,5-dimethyl-pyrazol-4-yl]-5,6-dihydropyrimido[4,5-e]indolizine-7-carboxamide]"
20,< 50,"COc1cc(N2CCN(C)CC2)ccc1Nc1ncc2c(n1)-n1ccc(C(=O)Nc3c(C)cccc3C#N)c1CC2 [Example 133, N-(2-cyano-6-methyl-phenyl)-2-[2-methoxy-4-(4-methylpiperazin-1-yl)anilino]-5,6-dihydropyrimido[4,5-e]indolizine-7-carboxamide]"
21,< 50,"CCc1cccc(CC)c1NC(=O)c1ccn2c1CCc1cnc(Nc3ccc(N(C)CCCN(C)C)cc3OC)nc1-2 [Example 134, N-(2,6-diethylphenyl)-2-[4-[3-(dimethylamino)propyl-methyl-amino]-2-methoxy-anilino]-5,6-dihydropyrimido[4,5-e]indolizine-7-carboxamide]"
22,< 50,"COCCOCCOCCn1nc(C)c(NC(=O)c2ccn3c2CCc2cnc(Nc4ccc(N(C)CCCN(C)C)cc4OC)nc2-3)c1C [Example 135, 2-[4-[3-(Dimethylamino)propyl-methyl-amino]-2-methoxy-anilino]-N-[1-[2-[2-(-2-methoxyethoxy)ethoxy]ethyl]-3,5-dimethyl-pyrazol-4-yl]-5,6-dihydropyrimido[4,5-e]indolizine-7-carboxamide]"
23,50 to 150,"CCc1cccc(CC)c1NC(=O)c1ccn2c1CCc1cnc(Nc3ccc(OCCOC)cc3OC)nc1-2 [Example 136, N-(2,6-diethylphenyl)-2-[2-methoxy-4-(2-methoxyethoxy)anilino]-5,6-dihydropyrimido[4,5-e]indolizine-7-carboxamide]"
24,< 50,"COCCOCCOCCn1nc(C)c(NC(=O)c2ccn3c2CCc2cnc(Nc4ccc(OCCOC)cc4OC)nc2-3)c1C [Example 137, N-[1-[2-[2-(2-methoxyethoxy)ethoxy]ethyl]-3,5-dimethyl-pyrazol-4-yl]-2-[2-methoxy-4-(2-methoxyethoxy)anilino]-5,6-dihydropyrimido[4,5-e]indolizine-7-carboxamide]"
25,50 to 150,"COc1cc(N2CCN(C)CC2)ccc1Nc1ncc2c(n1)-n1ccc(C(=O)Nc3c(C)nn(CC4CCO4)c3C)c1CC2 (stereo not shown) [Example 140, N-[3,5-dimethyl-1-(oxetan-2-ylmethyl)pyrazol-4-yl]-2-[2-methoxy-4-(4-methylpiperazin-1-yl)anilino]-5,6-dihydropyrimido[4,5-e]indolizine-7-carboxamide]"
26,50 to 150,"CCc1nn(C2COC2)c(CC)c1NC(=O)c1ccn2c1CCc1cnc(Nc3ccc(N4CCN(C)CC4)cc3OC)nc1-2 [Example 142, N-[3,5-diethyl-1-(oxetan-3-yl)pyrazol-4-yl]-2-[2-methoxy-4-(4-methylpiperazin-1-yl)anilino]-5,6-dihydropyrimido[4,5-e]indolizine-7-carboxamide]"
27,< 50,"Cc1cccc(C)c1NC(=O)c1ccn2c1CCc1cnc(Nc3ccc(N4CCN(C)CC4)cc3OC(F)F)nc1-2 [Example 144, N-(2,6-dimethyl-phenyl)-2-[2-(difluoromethoxy)-4-(4-methylpiperazin-1-yl)anilino]-5,6-dihydropyrimido[4,5-e]indolizine-7-carboxamide]"

row,Structure (SMILES),IC50 [nM]
1,"COCC(=O)N1CCN(c2ccc(Nc3ncc4c(n3)-n3ccc(C(=O)Nc5c(C)cccc5C)c3CC4)c(OC)c2)CC1 [Example 105, N-(2,6-dimethylphenyl)-2-[2-methoxy-4-[4-(2-methoxyacetyl)piperazin-1-yl]anilino]-5,6-dihydropyrimido[4,5-e]indolizine-7-carboxamide]",< 50
